Experimental data from patent publication US20230390322A1, “HIGH CONCENTRATION METHYLCOBALAMIN OR COMBINATION OF METHYL- AND HYDROXY-COBALAMIN FOR THE TREATMENT OF COBALAMIN C DEFICIENCY DISORDERS” (THE U.S.A., as represented by the Secretary, Department of …, priority 2020, published 2023).
“Also recorded” adds a separate entry of the source.

What was measured:
[1] = tested on: Mmachc^de13/de13 mice; assay: Plasma metabolite measurements (GC-MS), Mmachc^de13/de13; assay type: in vivo, mouse; settings: for plasma cystathionine: P0-P30; for plasma methylmalonic acid: P0-P30 (two weeks)
Protocol: Metabolite measurements: Blood samples were collected in heparinized capillary tubes and centrifuged at 2000 rpm for 10 min at 4C. Plasma was diluted 1:40 in water for methylmalonic acid and methylcitrate measurements and undiluted plasma was used for homocysteine and cystathionine measurements. Plasma concentrations were determined by gas chromatography-mass spectrometry (GC-MS).

[2] = tested on: Mmachc^de13/de13 mice; assay: Pigmentation / clinical appearance, Mmachc^de13/de13; assay type: in vivo, mouse
[3] = tested on: Mmachc^de12/de12 mice; assay: Survival of treated Mmachc^de12/de12 mutant mice; assay type: in vivo, mouse; settings: prenatal treatment; for median survival: Mmachc^de12/de12 mutants, OHCbl 1 mg, MeCbl 1 mg or 0.5 mg each weekly
Protocol: (§1) Survival and phenotype in Mmachc mice: Mendelian ratios at birth, survival, and relative weight: To determine survival, litters were assessed daily after birth and dead pups were noted, removed, and genotyped when tissue was available. Age at time of death was recorded. Weights were measured monthly and the weight of mutants relative to average weight of control littermates was calculated.
(§2) Cobalamin Treatment: OHCbl and MeCbl were obtained from College Pharmacy (Colorado Spring, CO) or prepared at 25 mg/ml concentration and subsequently diluted with 0.9% saline solution to a working solution of 5 mg/ml. OHCbl or MeCbl was delivered by intraperitoneal injections for pups ages P0-P14 and subcutaneous injections for mice post weaning. For in utero treatment studies, pregnant dams were treated with 1 mg/week (100 mg/kg) via subcutaneous injections throughout pregnancy and weaning. For chronic therapy 50 μg/kg dosing was used.
(§3) Statistics: Graphpad Prism Software was used for statistical analysis. All data are presented as mean±SD and significance is indicated as follows: p<0.05(*), p<0.01(**), p<0.001 (***), and p<0.0001(****). Kaplan-Meier survival curve significance was determined using the Log-Rank Mantel-Cox test, genotype distribution significance was assessed using the chi-square test, and all other statistics were calculated using the unpaired t-test.

[4] = tested on: Mmachc^de12/de12 embryos; assay: E18.5 embryo weight and pathology, Mmachc^de12/de12; assay type: in vivo, mouse; settings: prenatal treatment
Protocol: (§4) AAV Vector Design, Production, and Delivery: Two adeno associated viral vectors were designed: AAVrh10-Mmachc, containing the murine Mmachc coding sequence packaged into a rh10 serotype capsid, and AAV9-coMMACHC, containing a codon optimized human MMACHC coding sequence packaged into an AAV9 serotype capsid. AAVs were produced as described previously. AAV viral vectors were delivered via intrahepatic injection at a dose of 1×10^11 GC per pup in the neonatal period (P0-2). ddPCR was conducted using a CMV/CBA probe spanning the promoter/enhancer, reference albumin Dissection of Pregnant Dams: Pregnant dams were either untreated, treated with OHCbl, MeCbl or the combination (1 mg per week) during pregnancy as described and sacrificed at E18.5. Embryos were photographed, tails were collected for genotyping, and the remaining tissue was collected and flash frozen. Embryo weights were measured and the weight of mutants relative to average weight of control littermates was calculated. Crown to rump length of each embryo was also determined using ImageJ software.

[5] = tested on: Mmachc^de12/de12 mice; assay: Postnatal weight, Mmachc^de12/de12; assay type: in vivo, mouse; settings: prenatal treatment
Protocol: as §1

[6] = tested on: Mmachc^de13/de13 mice; assay: Postnatal weight relative to control littermates, Mmachc^de13/de13; assay type: in vivo, mouse
Protocol: as §1

[7] = tested on: Mmachc^de13/de13 mice; assay: Survival of treated Mmachc^de13/de13 mutant mice; assay type: in vivo, mouse; settings: for median survival: Mmachc^de13/de13 mutants, pregnant dams treated weekly (1 mg) throughout gestation and weaning (prenatal treatment); for mutants alive at 100 days: prenatal treatment
Protocol: as §1, §2, §4, §3

[8] = tested on: Mmachc^del2 mouse line; assay: Genotype distribution at birth (P0-2), Mmachc^del2 litters; assay type: in vivo; settings: mice at birth; prenatal treatment
Protocol: (§5) Genotyping and breeding scheme: Tail biopsies were performed routinely at 10-15 days of life or in rare cases in the first day of life and DNA was extracted using the Qiagen DNEASY® Spin Kit or the MYTAQ® Extract-PCR Kit. Mmachc genotype was determined by a fluorescent PCR method described previously^22 or by Droplet Digital PCR (ddPCR) Mutation Detection Assay (Bio-Rad). ddPCR genotyping was performed by mixing 2 ul of 1:10 diluted DNA, 1.1 ul probe-primer mix, and 7.9 ul water. The primer-probe mix contained the wild-type/mutant primer and fluorescent FAM and HEX probes targeting the mutant and wild-type alleles, respectively. Sample droplets were generated by the QX200 Droplet Digital PCR system, PCR amplified in a thermocycler, and DNA quantified by droplet fluorescence. Mmachc homozygous mutant mice and their heterozygote or wild type control littermates were generated from heterozygous parental crosses unless otherwise noted. In order to eliminate the Pdeb(rdl) mutation present in the FVB/N genetic background which causes retinal degeneration, Mmachc carrier mice were crossed to C57BL/6J mice. Subsequent generations of Mmachc carriers were genotyped for the Pdeb(rdl) mutation using a published PCR method (Gimenez and Montouliu Lab Anim 35, 153-6 (2001)), and mice homozygous for the functional Pdeb(rdl) allele were selected for further breeding. Mice were fed regular or high fat chow and weaned at P21-28.
as §1, §2, §3

[9] = tested on: Mmachc^del3 mouse line; assay: Genotype distribution at birth (P0-2), Mmachc^del3 litters; assay type: in vivo; settings: mice at birth; prenatal treatment
Protocol: as §5, §1, §2, §3

[10] = tested on: Mmachc^de12/de12 mice; assay: Pigmentation / clinical appearance, Mmachc^de12/de12; assay type: in vivo, mouse; settings: prenatal treatment
[11] = tested on: Mmachc^de13/de13 mice; assay: Retinal histology and electroretinography, Mmachc^de13/de13; assay type: in vivo, mouse
From the text: The severe neonatal lethality of this model in combination with the fact that the mouse retina develops until ˜P21 made it challenging to study retinal pathology in untreated mice.

[12] = tested on: Mmachc^de13/de13 embryos; assay: E18.5 embryo growth parameters, Mmachc^de13/de13; assay type: in vivo, mouse
Protocol: as §4

[13] = tested on: Mmachc^del3 mouse line; assay: Genotype distribution at E18.5, Mmachc^del3 litters; assay type: in vivo; settings: mice at E18.5; prenatal treatment
Protocol: as §4, §3

[14] = tested on: cblC patients; assay: Natural history cohort of cblC patients (NCT00078078); assay type: in vivo, human
Protocol: Extensive data was collected on a large natural history cohort of 61 patients studied every 2-3 years over 15 yrs to evaluate the impact of different approaches to clinical management/cobalamin therapy on disease outcomes (ClinicalTrial.gov ID: NCT00078078). […] Six patients (ages 2.2-3.8 years), who received higher doses of hydroxocobalamin (5-20 mg/day or 0.3-1.4 mg/kg/d) starting between 6 mo-1 yr, presented with variable macular degeneration and improved average FSIQ and ABC scores in the normal range (FSIQ 91.6±5.3; ABC 88.2±10.7), compared to our historic scores in young children <10 y of age on <0.3 mg/kg/day (FSIQ 70.69±19.11, ABC 79.83±17.42).

[15] = 7-13 months, both prenatal OHCbl and prenatal OHCbl+weekly groups
[16] = 7-13 months, prenatal+postnatal OHCbl
[17] = six patients ages 2.2-3.8 years, 5-20 mg/day or 0.3-1.4 mg/kg/d starting between 6 mo-1 yr
[18] = young children <10 y of age on <0.3 mg/kg/day

Structure (SMILES): C/C1=C2/[N-][C@H]([C@H](CC(N)=O)[C@@]2(C)CCC(=O)NC[C@H](C)OP(=O)([O-])O[C@H]2[C@@H](O)[C@@H](n3cnc4cc(C)c(C)cc43)O[C@@H]2CO)[C@]2(C)N=C(/C(C)=C3N=C(/C=C4N=C1[C@@H](CCC(N)=O)C\4(C)C)[C@@H](CCC(N)=O)[C@]\3(C)CC(N)=O)[C@@H](CCC(N)=O)[C@]2(C)CC(N)=O.[CH3-].[Co+3] [MeCbl, methylcobalamin]
- plasma cystathionine ([1]; prenatal treatment): reduced cystathionine to control levels; also recorded: decreased to control levels
- homocysteine levels ([1]; prenatal treatment): did not improve
- pigmentation of fur, ears and tails ([2]; prenatal treatment): minimal pigmentation differences
- median survival [3]: 78 days
- mutants survived beyond 30 days [3]: 100%
- weight of E18.5 embryos normalized to control values ([4]; weekly subcutaneous injection of dams, untreated 76.4%): 89.4 % of controls
- pathology at E18.5 ([4]; H&E): ameliorated the pathology in the lungs, liver and brown fat
- growth at 1 month [5]: appeared growth impaired but this was not significant at 1 month
- size relative to littermates at 3 months ([6]; prenatal treatment): 48%
- median survival [7]: 144 days
- mutants alive at 100 days [7]: 100%
- genotype distribution +/+ (%) [8]: 18%
- genotype distribution +/+ n [8]: 14
- genotype distribution +/− (%) [8]: 53%
- genotype distribution +/− n [8]: 41
- genotype distribution −/− (%) [8]: 29%
- genotype distribution −/− n [8]: 22
- genotype distribution +/+ (%) [9]: 31%
- genotype distribution +/+ n [9]: 38
- genotype distribution +/− (%) [9]: 63%
- genotype distribution +/− n [9]: 76
- genotype distribution −/− (%) [9]: 6%
- genotype distribution −/− n [9]: 7
- pigmentation of the ears [10]: improvement in pigmentation of the ears

Structure (SMILES): C/C1=C2/[N-][C@H]([C@H](CC(N)=O)[C@@]2(C)CCC(=O)NC[C@@H](C)OP(=O)([O-])O[C@H]2[C@@H](O)[C@@H](n3cnc4cc(C)c(C)cc43)O[C@@H]2CO)[C@]2(C)N=C(/C(C)=C3N=C(/C=C4N=C1[C@@H](CCC(N)=O)C\4(C)C)[C@@H](CCC(N)=O)[C@]\3(C)CC(N)=O)[C@@H](CCC(N)=O)[C@]2(C)CC(N)=O.[Co+3].[OH-] [OHCbl, hydroxocobalamin]
- homocysteine [1, 15]: remained elevated vs controls but was lower
- methylmalonic acid [1, 15]: remained elevated vs controls and untreated mutants
- methylmalonic acid levels in the blood [MMA] [1, 16]: > 1500 µM
- total homocysteine levels (tHCYS) [1, 16]: 31 µM
- plasma methylmalonic acid ([1]; prenatal treatment only): no decrease
- plasma methylmalonic acid ([1]; weekly (chronic) OHCbl): decreased
- plasma cystathionine ([1]; prenatal treatment): elevated compared to untreated mutants; also recorded: increased
- homocysteine levels ([1]; prenatal and weekly treatment): did not improve
- homocysteine levels ([1]; prenatal treatment): did not improve
- pigmentation of ears and tail ([2]; long term (prenatal+weekly) treatment): decreased hypopigmentation
- median survival [3]: 25 days
- relative weight of mutant mice at two weeks ([6]; prenatal OHCbl): improved the weight vs untreated
- relative weight of mutant mice at two weeks ([6]; prenatal OHCbl+weekly): improved the weight vs untreated
- retinal histology ([11]; 6-9 months of age): within normal limits
- electroretinography (ERG) ([11]; prenatal OHCbl/AAV9 at 9 months, OHCbl at 6 months): diminished scotopic B waves
- median survival [7]: 109 days
- mutants alive at 100 days [7]: 50%
- longest surviving ([7]; prenatal+weekly OHCbl): > 1 year
- embryo weight normalized to control littermates ([12]; de13/de13, prenatal treatment, n=11): 0.8204±0.03641
- anterioposterior abdominal dimension (APD) ([12]; prenatal treatment): did not improved
- crown rump length (IUGR) ([12]; prenatal treatment): did not rescue the IUGR
- genotype distribution +/+ (%) [8]: 29%
- genotype distribution +/+ n [8]: 76
- genotype distribution +/− (%) [8]: 66%
- genotype distribution +/− n [8]: 171
- genotype distribution −/− (%) [8]: 5%
- genotype distribution −/− n [8]: 13
- genotype distribution +/+ (%) [13]: (23) %
- genotype distribution +/+ n [13]: 14
- genotype distribution +/− (%) [13]: (46) %
- genotype distribution +/− n [13]: 28
- genotype distribution −/− (%) [13]: (31) %
- genotype distribution −/− n [13]: 19
- genotype distribution +/+ (%) [9]: 30%
- genotype distribution +/+ n [9]: 105
- genotype distribution +/− (%) [9]: 54%
- genotype distribution +/− n [9]: 192
- genotype distribution −/− (%) [9]: 16%
- genotype distribution −/− n [9]: 57
- adverse events ([14]; adults and children on 25 mg/day monitored 2-8 years): no significant adverse events
- ABC score ([14]; single patient, 5 mg): 79
- eye exam ([14]; single patient, 5 mg): normal
- average ABC score [14, 17]: 88.2±10.7
- average FSIQ score [14, 17]: 91.6±5.3
- ABC score (historic) [14, 18]: 79.83±17.42
- FSIQ score (historic) [14, 18]: 70.69±19.11
